Experimental data taken from PubChem BioAssay (NCI).
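Results reflect a 48-hour exposure of cells in 96-well plates to compound at five concentrations. TGI: concentration producing complete growth inhibition.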

How the values were obtained:
Assay in all cases: inhibition of tumour cell growth, NCI panel, 48 h
[1] = test system: COLO 205 colon
[2] = test system: DU-145 prostate
[3] = test system: HCT-15 colon
[4] = test system: K-562 leukemia
[5] = test system: LOX IMVI melanoma
[6] = test system: MALME-3M melanoma
[7] = test system: MDA-MB-435
[8] = test system: MDA-N
[9] = test system: MOLT-4 leukemia
[10] = test system: NCI-H226 lung
[11] = test system: NCI-H23 lung
[12] = test system: NCI-H522 lung
[13] = test system: OVCAR-5 ovarian
[14] = test system: PC-3 prostate
[15] = test system: SK-MEL-28 melanoma
[16] = test system: SK-OV-3 ovarian
[17] = test system: SN12C renal
[18] = test system: SNB-19 CNS
[19] = test system: UO-31 renal
[20] = test system: BT-549 breast

SMILES | TGI [1] [µM] | TGI [2] [µM] | TGI [3] [µM] | TGI [4] [µM] | TGI [5] [µM] | TGI [6] [µM] | TGI [7] [µM] | TGI [8] [µM] | TGI [9] [µM] | TGI [10] [µM] | TGI [11] [µM] | TGI [12] [µM] | TGI [13] [µM] | TGI [14] [µM] | TGI [15] [µM] | TGI [16] [µM] | TGI [17] [µM] | TGI [18] [µM] | TGI [19] [µM] | TGI [20] [µM]
Cc1nc2ccc(Cl)cc2c2c1CCS2 | > 100 | > 100 | > 100 | > 100 | > 100 | > 100 | > 100 | > 100 | 74.3 | > 100 | > 100 | > 100 | > 100 | > 100 | > 100 | > 100 | > 100 | > 100 | > 100 | –
COc1ccc(N(CN2C(=O)CCC2C(=O)O)C(C)=O)cc1 (stereo not drawn) | > 100 | > 100 | > 100 | > 100 | > 100 | > 100 | > 100 | > 100 | > 100 | > 100 | > 100 | > 100 | > 100 | > 100 | > 100 | > 100 | > 100 | > 100 | > 100 | –
O=[N+]([O-])c1ccc2[nH]nc(OCc3ccccn3)c2c1 | > 100 | > 100 | > 100 | > 100 | > 100 | > 100 | > 100 | > 100 | > 100 | > 100 | > 100 | > 100 | > 100 | > 100 | > 100 | > 100 | > 100 | > 100 | > 100 | –
Cn1ccc(C(=O)N2CCSC2=S)c(OCc2ccccc2)c1=O | > 100 | > 100 | > 100 | > 100 | > 100 | > 100 | > 100 | > 100 | – | > 100 | > 100 | > 100 | – | > 100 | > 100 | – | > 100 | > 100 | > 100 | > 100
COC(=O)C(C)(C)OCc1ccc(C2NC(=O)N(c3cccc(Cl)c3)C(=O)N2c2cccc(Cl)c2)cc1 (stereo not drawn) | > 100 | > 100 | > 100 | > 100 | – | – | > 100 | > 100 | > 100 | – | 22.1 | 76.8 | > 100 | > 100 | > 100 | > 100 | > 100 | > 100 | > 100 | > 100
CC(=O)N1CN2C(=O)CCC2c2ccccc21 (stereo not drawn) | > 100 | > 100 | > 100 | > 100 | > 100 | > 100 | > 100 | > 100 | > 100 | > 100 | > 100 | > 100 | > 100 | > 100 | > 100 | > 100 | > 100 | > 100 | > 100 | –
COc1cc(OC)cc(OCc2ccc3nc(-c4ccccc4)c(Cl)nc3c2)c1 | 68.9 | > 100 | > 100 | – | > 100 | 32.7 | > 100 | > 100 | 74.1 | – | > 100 | 20.3 | > 100 | > 100 | > 100 | – | > 100 | 66.9 | > 100 | 65.3
O=C(NCCCCN(CCCNC(=O)C(F)(F)F)Cc1ccc2ccccc2c1)C(F)(F)F | 30.3 | 56.1 | 31.1 | 37 | 32.7 | 29.1 | 35.7 | 31.6 | 49 | 56.8 | 44.6 | 36.7 | 32.6 | – | 31.5 | 55.6 | 30.3 | 29 | 20.5 | 36.5
Cc1n[nH]c(=O)n1C1CCCC1 | > 100 | > 100 | > 100 | > 100 | > 100 | > 100 | > 100 | > 100 | > 100 | > 100 | > 100 | > 100 | > 100 | > 100 | > 100 | – | > 100 | > 100 | > 100 | > 100
CCCN1CC=C(c2cc(C(=O)OCC)[nH]c2-c2cc(C)no2)C1=O | > 100 | > 100 | > 100 | > 100 | > 100 | > 100 | > 100 | > 100 | > 100 | > 100 | > 100 | – | > 100 | > 100 | > 100 | > 100 | > 100 | > 100 | > 100 | > 100
CCOC(=O)C1C(c2ccc(OC)cc2)c2c([nH]n(-c3ccccc3)c2=O)CC1(O)OCC (stereo not drawn) | > 100 | > 100 | > 100 | – | > 100 | > 100 | > 100 | > 100 | 14 | – | > 100 | > 100 | > 100 | > 100 | > 100 | – | > 100 | – | > 100 | > 100
O=C(Nc1nc(C23CC4CC(CC(C4)C2)C3)cs1)c1c(O)c2ccccc2[nH]c1=O | > 100 | > 100 | > 100 | > 100 | > 100 | > 100 | > 100 | > 100 | > 100 | > 100 | > 100 | > 100 | > 100 | > 100 | > 100 | – | > 100 | > 100 | > 100 | > 100
CC(C)c1nc2cc(C(F)(F)F)ccc2[nH]c1=O | > 100 | – | > 100 | > 100 | – | > 100 | > 100 | > 100 | > 100 | > 100 | > 100 | > 100 | > 100 | > 100 | > 100 | > 100 | > 100 | > 100 | > 100 | > 100
CC1=NNC(=O)C1C1CC(c2c[nH]c3ccccc23)=NNC1=S (stereo not drawn) | > 100 | > 100 | > 100 | > 100 | – | > 100 | > 100 | > 100 | > 100 | > 100 | > 100 | > 100 | > 100 | > 100 | > 100 | > 100 | > 100 | > 100 | > 100 | > 100
O=C1CCCC2C(O)CCC[C@H]12 (stereo partly drawn) | > 100 | > 100 | > 100 | > 100 | > 100 | > 100 | – | > 100 | > 100 | > 100 | > 100 | > 100 | > 100 | > 100 | > 100 | > 100 | > 100 | > 100 | > 100 | > 100
N#CC1Cc2cc3c(cc21)OCO3 (stereo not drawn) | > 100 | > 100 | > 100 | > 100 | > 100 | > 100 | > 100 | > 100 | > 100 | > 100 | > 100 | – | > 100 | > 100 | > 100 | – | > 100 | > 100 | > 100 | > 100
CC(C)(C)n1c(=O)[nH]n(C2NN=Cc3cccc4cccc2c34)c1=O (stereo not drawn) | 74.9 | > 100 | > 100 | 40.7 | > 100 | > 100 | > 100 | 59.4 | 81.1 | > 100 | > 100 | – | > 100 | > 100 | > 100 | > 100 | > 100 | > 100 | 70.3 | > 100
CCOC(O)(NC(=O)C(C(F)(F)F)C(F)(F)F)C(F)(F)F (stereo not drawn) | > 100 | – | > 100 | > 100 | > 100 | – | > 100 | > 100 | > 100 | – | > 100 | – | > 100 | > 100 | > 100 | – | > 100 | > 100 | > 100 | > 100
CC1=NOC2(C1)C(=O)Nc1ccccc12 (stereo not drawn) | > 100 | > 100 | > 100 | > 100 | > 100 | > 100 | > 100 | > 100 | > 100 | > 100 | > 100 | > 100 | > 100 | > 100 | > 100 | > 100 | > 100 | > 100 | – | –
COc1cc2c(c(O)c1OC)C(O)C1CCC(=O)N1C2c1cccc2ccccc12 (stereo not drawn) | > 100 | > 100 | > 100 | > 100 | – | > 100 | > 100 | > 100 | > 100 | > 100 | > 100 | > 100 | > 100 | > 100 | > 100 | > 100 | > 100 | > 100 | > 100 | > 100
C1=Nc2ccc(cc2)N=Cc2ccc(cc2)OCc2cccc(n2)COc2ccc1cc2 | > 100 | > 100 | > 100 | > 100 | – | > 100 | > 100 | > 100 | > 100 | > 100 | > 100 | > 100 | > 100 | > 100 | > 100 | > 100 | > 100 | > 100 | > 100 | > 100
Cc1c(C#N)c2ccccc2c2nc3ccccc3n12 | – | > 100 | > 100 | > 100 | > 100 | – | > 100 | > 100 | > 100 | > 100 | – | > 100 | > 100 | > 100 | > 100 | > 100 | > 100 | > 100 | > 100 | > 100
Cc1ccc(S(=O)(=O)n2c3c(c4ccccc42)CCN2C(=O)C(S(=O)(=O)c4ccccc4)=CCC32)cc1 (stereo not drawn) | 0.458 | 0.375 | 0.421 | 0.673 | 0.452 | 0.463 | 0.445 | 0.378 | – | – | 0.335 | 0.567 | 0.581 | 0.562 | 0.353 | 2.61 | 0.434 | 1.91 | 0.384 | –
Cc1ccc(Cc2n[nH]c(=O)n2-c2ccccc2)cc1 | – | > 100 | > 100 | > 100 | – | > 100 | > 100 | > 100 | > 100 | > 100 | > 100 | – | > 100 | > 100 | > 100 | – | > 100 | > 100 | > 100 | > 100
CCOc1ccc(Nc2nc3c(s2)C(=O)c2ccccc2C3=O)cc1 | 46 | 27.8 | > 100 | > 100 | 15.8 | 8.19 | 3.25 | 3.69 | > 100 | – | – | 78.7 | 40 | 20 | 36.1 | 34.3 | 13.5 | 30.1 | 28.4 | –
O=c1[nH]c2ccc(Cl)cc2c2oc(-c3ccccc3)nc12 | > 100 | – | > 100 | > 100 | > 100 | 78 | > 100 | > 100 | > 100 | 42.3 | 74.9 | 32.3 | > 100 | > 100 | – | 44.1 | 41.8 | 43.1 | 44.2 | > 100
